Laboratory results as given in article PMC10485906, “Development of a Dihydroquinoline–Pyrazoline GluN2C/2D-Selective Negative Allosteric Modulator of the N-Methyl-D-aspartate Receptor” (ACS Chemical Neuroscience, 2023).

What was measured:
[1] = target: GluN1/GluN2D (Rattus norvegicus, UniProt Q62645); experiment: Whole-cell voltage-clamp recordings, HEK cells, GluN1/GluN2D (agonist dependence); type: cell-based
Excerpt: We previously described the actions of the GluN2C/GluN2D-preferring negative allosteric modulator DQP-1105 as dependent on glutamate (but not glycine) binding, in that DQP-1105 affinity increases after GluN1/GluN2D NMDARs bind glutamate.[32] […] The concentration-dependent relaxation is indicative of an agonist-induced increase in potency that leads to re-equilibration of the inhibitor after agonist binding induces an increase in inhibitor affinity. We investigated the glutamate dependence of compound 2i (GluN1/GluN2D, Figure 4; GluN1/GluN2C, Figure S2), DQP-1105 (Figure S1), and compound (S)-2a (DQP-69;[33]Figure S3) using the same protocols.
We preincubated cells with glycine and the inhibitor 2i (DQP-997-74) and compared inhibitor potency during the peak and steady-state current responses to glutamate application. […] To investigate the time course of 2i inhibition, we fitted the relaxation of the current response with a single exponential function. If the current response time course reflects 2i binding, then the reciprocal of τinhibition should be linearly related to its concentration, with the slope equal to kON and intercept equal to kOFF. […] The deactivation of GluN1/GluN2D receptors (5.3 ± 0.2 s) was slowed by the presence of compound 2i when applied at concentrations of 0.1 μM (7.3 ± 0.3 s; p = 0.017) and 0.3 μM (10.5 ± 1.0 s; p = 0.002) but not at 0.03 μM (5.6 ± 0.3 s; p = 0.518; Figure 4E). […] This phenomenon was previously discovered for QNZ-46, a glutamate-dependent GluN2C/2D-selective inhibitor with a different structural core.[42] As proposed in that study, the prolonged deactivation may indicate that 2i slows a conformational change necessary for glutamate unbinding or 2i may need to unbind before glutamate can unbind.
In addition, we evaluated how glutamate dependence affects inhibition of responses to brief agonist applications similar to phasic glutamate release that occurs at synapses. To do so, we preincubated cells expressing GluN1/GluN2D receptors with the inhibitor 2i and then applied trains of five brief pulses of NMDA (which dissociates more rapidly than glutamate) and glycine from a pressurized micropipette to mimic repetitive synaptic transmission (Figure 4F). We measured the peak amplitude and compared the concentration–response curves for the inhibition of the first and last response (Figure 4G). The initial train of pulses in the absence of drug controls for systematic errors such as internalization of receptors.
To further evaluate whether 2i followed the law of mass action, we coapplied different concentrations of 2i with glutamate during the steady-state glutamate and glycine responses of GluN1/GluN2D receptors expressed in HEK cells (Figure 4H). […] We also fitted the onset and offset time course of the inhibition produced by compound 2i with a single exponential function (Figure 4J).
HEK293 cells (HEK, ATCC CRL-1573) were plated on glass coverslips pretreated with 0.1 mg/mL poly-D-lysine and cultured in Dulbecco’s modified Eagle medium (DMEM) plus Glutamax (GIBCO 10569-10) supplemented with 10% fetal bovine serum, 10 U/mL of penicillin, and 10 μg/mL of streptomycin at 37 °C and 5% CO2. The cells were transiently transfected with cDNA encoding rat GluN1, GluN2D, and eGFP at a ratio of 1:1:5 by using the calcium phosphate precipitation method.[48] After 24–48 h following the transfection, the cells were perfused with external recording solution that contained (in mM) 3 KCl, 150 NaCl, 0.01 EDTA, 1.0 CaCl2, 10 HEPES, and 22 D-mannitol (the pH was adjusted to 7.4 with NaOH). The patch electrodes (resistance 3–5 MΩ) were prepared from thin-walled glass micropipettes (TW150F-4, World Precision Instruments, Sarasota, FL) by a dual-stage glass micropipette puller (PC-10, Narishige, Tokyo, Japan) and filled with internal solution containing (in mM) 110 D-gluconate, 110 CsOH, 30 CsCl, 5 HEPES, 4 NaCl, 0.5 CaCl2, 2 MgCl2, 5 BAPTA, 2 NaATP, and 0.3 NaGTP. […]

[2] = target: T1, GluK2 (Rattus norvegicus, UniProt P42260); experiment: Off-target, oocytes, GluK2; type: cell-based; details: 1 µM compound; 100 µM glutamate
T1 construct: expressed in transfected cells; host or cells: Xenopus oocytes (cRNA injection)
Method: Analysis of Off-target Actions
Compound (S)-(-)-2i was tested at 1 µM for actions at glycine-activated GluN1/GluN3A (human GluN1-F484A,T518L/GluN3A referred to a GluN1-FA,TL/GluN3A) and rat GluN1-4a/GluN3B in the presence of 0.5 µM CGP-78608. cRNA injection ratios for GluN1/GluN3 were 1:2. Compound (S)-(-)- 2i was also tested for actions at AMPA (rat GluA1, rat GluA2, human GluA3-L531Y), kainate (rat GluK2), nicotinic acetylcholine (rat α7 and α4β2, cRNA ratio 1:1), GABAA (rat α1β2γ2S, cRNA ratio 1:1:1), GABAC (rat ρ1), glycine (rat α1), and purinergic (human P2X) receptors expressed in Xenopus oocytes. cRNA encoding the receptor subunits was synthesized from linear template cDNA using the mMessage mMachine kit (Ambion). Oocytes were injected with 1-5 ng cRNA in a 50 nL volume and incubated in Barth's solution at 15°C for 2-5 days prior to recording. GluK2-expressing oocyte were incubated in 1 mg/ml (10 µM) concanavalin-A for 10 min prior to recording. The cDNAs encoding GABAC and glycine subunits were provided by Dr. D. Weiss (University of Texas Health Science Center at San Antonio). cDNAs encoding nicotinic acetylcholine receptor subunits were provided by Drs. […]
GABA. […] Responses in presence of test compound were expressed as a percent of control. […]

Chain of GluN1/GluN2D (Q62645 28-1323, other chains not shown): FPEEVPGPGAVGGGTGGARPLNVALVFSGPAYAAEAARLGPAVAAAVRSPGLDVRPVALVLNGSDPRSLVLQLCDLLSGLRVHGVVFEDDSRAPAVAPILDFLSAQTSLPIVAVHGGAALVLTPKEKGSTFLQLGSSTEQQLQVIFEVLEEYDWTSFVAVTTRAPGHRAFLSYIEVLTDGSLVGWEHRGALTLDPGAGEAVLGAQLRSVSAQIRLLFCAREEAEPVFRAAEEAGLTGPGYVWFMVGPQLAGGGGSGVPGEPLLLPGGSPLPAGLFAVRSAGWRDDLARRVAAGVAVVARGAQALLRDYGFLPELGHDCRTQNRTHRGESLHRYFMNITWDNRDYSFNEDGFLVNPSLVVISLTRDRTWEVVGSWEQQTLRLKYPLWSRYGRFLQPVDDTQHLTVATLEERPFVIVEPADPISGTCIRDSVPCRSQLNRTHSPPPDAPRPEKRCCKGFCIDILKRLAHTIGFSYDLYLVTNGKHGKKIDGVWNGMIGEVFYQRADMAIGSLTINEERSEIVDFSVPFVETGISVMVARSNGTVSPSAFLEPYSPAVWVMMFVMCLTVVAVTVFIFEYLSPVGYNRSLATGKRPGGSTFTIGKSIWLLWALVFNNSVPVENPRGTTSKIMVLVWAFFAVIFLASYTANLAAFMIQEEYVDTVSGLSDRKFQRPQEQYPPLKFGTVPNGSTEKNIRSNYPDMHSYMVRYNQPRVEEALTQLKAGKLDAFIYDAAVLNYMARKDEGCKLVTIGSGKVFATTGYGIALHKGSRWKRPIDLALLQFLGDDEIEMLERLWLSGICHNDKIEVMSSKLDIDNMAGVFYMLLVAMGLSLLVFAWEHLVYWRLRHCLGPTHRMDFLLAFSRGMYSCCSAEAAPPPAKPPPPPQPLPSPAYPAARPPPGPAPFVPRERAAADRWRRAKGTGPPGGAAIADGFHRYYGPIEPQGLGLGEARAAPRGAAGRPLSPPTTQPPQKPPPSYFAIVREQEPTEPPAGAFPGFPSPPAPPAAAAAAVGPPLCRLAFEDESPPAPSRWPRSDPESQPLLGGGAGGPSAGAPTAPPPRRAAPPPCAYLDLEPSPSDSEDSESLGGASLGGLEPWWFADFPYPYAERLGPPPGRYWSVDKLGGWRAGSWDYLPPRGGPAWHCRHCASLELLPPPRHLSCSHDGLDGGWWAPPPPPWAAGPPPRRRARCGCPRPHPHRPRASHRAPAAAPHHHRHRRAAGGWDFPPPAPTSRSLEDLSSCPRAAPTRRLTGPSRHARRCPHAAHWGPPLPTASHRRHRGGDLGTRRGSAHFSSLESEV
T1 sequence (P42260 32-908): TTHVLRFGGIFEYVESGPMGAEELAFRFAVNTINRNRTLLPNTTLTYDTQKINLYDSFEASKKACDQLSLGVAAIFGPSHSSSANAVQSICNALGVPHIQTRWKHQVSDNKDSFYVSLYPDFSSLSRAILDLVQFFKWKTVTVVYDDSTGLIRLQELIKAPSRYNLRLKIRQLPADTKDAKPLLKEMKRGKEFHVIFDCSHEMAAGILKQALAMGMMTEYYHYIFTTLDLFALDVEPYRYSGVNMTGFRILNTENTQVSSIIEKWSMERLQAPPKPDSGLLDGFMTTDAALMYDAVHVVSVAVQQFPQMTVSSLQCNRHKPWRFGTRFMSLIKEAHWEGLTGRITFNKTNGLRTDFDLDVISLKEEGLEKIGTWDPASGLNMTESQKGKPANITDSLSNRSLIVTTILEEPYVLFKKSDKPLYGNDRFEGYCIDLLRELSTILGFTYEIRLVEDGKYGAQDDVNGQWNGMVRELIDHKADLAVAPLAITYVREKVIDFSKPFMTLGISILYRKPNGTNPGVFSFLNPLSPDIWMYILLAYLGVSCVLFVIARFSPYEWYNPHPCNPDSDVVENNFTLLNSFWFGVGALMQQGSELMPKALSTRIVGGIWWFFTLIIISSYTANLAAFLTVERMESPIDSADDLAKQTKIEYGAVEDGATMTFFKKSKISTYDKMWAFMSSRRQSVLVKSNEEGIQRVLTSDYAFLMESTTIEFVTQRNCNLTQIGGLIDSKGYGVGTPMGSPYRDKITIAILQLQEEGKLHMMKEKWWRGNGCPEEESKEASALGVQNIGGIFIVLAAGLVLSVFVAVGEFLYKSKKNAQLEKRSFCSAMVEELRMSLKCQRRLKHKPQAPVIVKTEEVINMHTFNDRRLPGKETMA

With `O=C(O)CC(F)(F)C(=O)N1N=C(c2c(-c3ccc(Cl)cc3)c3ccccc3[nH]c2=O)CC1c1ccc(Cl)cc1` (centres unmarked) [2i] the “τdeactivation following glutamate removal” value ([1]; 0.03 μM compound, mean ± SEM) was 5.6 ± 0.3 s, the “τdeactivation following glutamate removal” value ([1]; 0.1 μM compound, mean ± SEM) was 7.3 ± 0.3 s and the “τdeactivation following glutamate removal” value ([1]; 0.3 μM compound, mean ± SEM) was 10.5 ± 1.0 s. The Hill slope ([1]; coapplication with glutamate) was 0.93, the “fold-change in IC50 for the peak and steady-state current responses” value ([1]; mean ± SEM, compared by ANOVA) was 3.0 ± 0.3 and the “IC50 fold higher during peak compared to steady-state” value ([1]; ratio of IC50 values) was 3 fold. For the same compound, the “IC50 fold higher at first pulse compared to fifth pulse” value ([1]; trains of brief agonist applications) was 1.9 fold.
`O=C(O)CC(F)(F)C(=O)N1N=C(c2c(-c3ccc(Cl)cc3)c3ccccc3[nH]c2=O)C[C@H]1c1ccc(Cl)cc1` [(S)-(−)-2i] was tested, and the “% control GluK2” value [2] was 100 ± 1.0%.
